Some results are limits rather than exact numbers.

The test system of the first test is DLD-1 BRCA2(−/−) Cell. In words: Cell viability assay (Resazurin) in DLD1-BRCA2 cells. As to conditions: Homo sapiens, DLD-1, 336 h, 14 days, 1,500 cells/well, final DMSO 1%. Format: cell-based. The method, then:
DLD1-BRCA2 KG (Horizon Discovery, Cat #HD 105-007) cells and DLD1-parental cells were maintained in culture media (RPMI-1640 including 2 mM L-glutamin and 25 mM sodium bicarbonate, supplemented with 10% FBS), at 37° C. in a humidified atmosphere with 5% CO2. Cells were seeded at the final concentration of 1,500 cells/well (DLD1-BRCA2 KG) and 600 cells/well (DLD1-parental) in a 96-well plate. Four hours later, test compounds were added (the final concentration of DMSO was 1%) to the cells and media were replaced every 3-4 days for 14 days. To measure viability, cells were incubated in culture media supplemented with 0.1 mg/ml of Resazurin (Merck, Cat #R7017) for 4 hours. The fluorescence was measured at Ex/Em=560 nm/590 nm using EnSight multimode plate reader (Perkin Elmer). Data analysis and IC50 calculation was done using GraphPad Prism (Version 10.0.2).
(In general: The colour change of resazurin is a common sign of viable cells or microbes.)
With `Cc1cccc(N(CC#Cc2ccc(N)nn2)C(=O)[C@@H]2CCC(=O)N2c2cc(C(F)(F)F)cc(C)n2)c1` [Example 1, (S)—N-(3-(6-aminopyridazin-3-yl)prop-2-yn-1-yl)-1-(6-methyl-4-(trifluoromethyl)pyridin-2-yl)-5-oxo-N-(m-tolyl)pyrrolidine-2-carboxamide], the half-maximal inhibitory concentration (IC50) (in general, the point on the concentration scale where inhibition reaches its midpoint) was less than 1000 nM.
`Cc1cc(C(F)(F)F)cc(N2C(=O)CC[C@H]2C(=O)N(CC#Cc2ccc(N)nn2)c2ccc(F)c(C)c2F)n1` [Example 2, (S)-N-(3-(6-aminopyridazin-3-yl)prop-2-yn-1-yl)-N-(2,4-difluoro-3-methylphenyl)-1-(6-methyl-4-(trifluoromethyl)pyridin-2-yl)-5-oxopyrrolidine-2-carboxamide]: the half-maximal inhibitory concentration (IC50) was less than 1000 nM.
Still for that read-out and setting: as for `Cc1cc(C(F)(F)F)cc(N2C(=O)CC[C@H]2C(=O)N(CC#Cc2ccc(N)nn2)c2ccc(F)c(Cl)c2)n1` [Example 3, (S)-N-(3-(6-aminopyridazin-3-yl)prop-2-yn-1-yl)-N-(3-chloro-4-fluorophenyl)-1-(6-methyl-4-(trifluoromethyl)pyridin-2-yl)-5-oxopyrrolidine-2-carboxamide], the figure is less than 1000 nM; as for `Cc1cc(C(F)(F)F)cc(N2C(=O)CC[C@H]2C(=O)N(CC#Cc2ccc(N)nn2)c2ccc(F)c(Cl)c2F)n1` [Example 4, (S)-N-(3-(6-aminopyridazin-3-yl)prop-2-yn-1-yl)-N-(3-chloro-2,4-difluorophenyl)-1-(6-methyl-4-(trifluoromethyl)pyridin-2-yl)-5-oxopyrrolidine-2-carboxamide], less than 1000 nM; as for `Cc1cc(C(F)(F)F)cc(N2C(=O)CC[C@H]2C(=O)N(CC#Cc2ccc(N)nn2)c2ccc(F)c(C)c2)n1` [Example 5, (2S)-N-(3-(6-aminopyridazin-3-yl)prop-2-ynyl]-N-(4-fluoro-3-methyl-phenyl)-1-[6-methyl-4-(trifluoromethyl)-2-pyridyl]-5-oxo-pyrrolidine-2-carboxamide], less than 1000 nM.
`Cc1cc(C(F)(F)F)cc(N2C(=O)CC[C@H]2C(=O)N(CC#Cc2cnc(N)cn2)c2ccc(F)c(C)c2)n1` [Example 6, (2S)-N-[3-(5-aminopyrazin-2-yl)prop-2-ynyl]-N-(4-fluoro-3-methyl-phenyl)-1-[6-methyl-4-(trifluoromethyl)-2-pyridyl]-5-oxo-pyrrolidine-2-carboxamide] returned an IC50 of less than 1000 nM.
`Cc1cc(C(F)(F)F)cc(N2C(=O)CC[C@H]2C(=O)N(CC#Cc2cccc(=O)[nH]2)c2ccc(F)c(C)c2)n1` [Example 7, (2S)-N-(4-fluoro-3-methyl-phenyl)-1-[6-methyl-4-(trifluoromethyl)-2-pyridyl]-5-oxo-N-[3-(6-oxo-1H-pyridin-2-yl)prop-2-ynyl]pyrrolidine-2-carboxamide] yielded a half-maximal inhibitory concentration (IC50) of less than 1000 nM.
`Cc1cc(C(F)(F)F)cc(N2C(=O)CC[C@H]2C(=O)N(CC#Cc2ccc(F)cn2)c2ccc(F)c(C)c2)n1` [Example 8, (S)-N-(4-fluoro-3-methylphenyl)-N-(3-(5-fluoropyridin-2-yl)prop-2-yn-1-yl)-1-(6-methyl-4-(trifluoromethyl)pyridin-2-yl)-5-oxopyrrolidine-2-carboxamide] displayed an IC50 of less than 1000 nM.
On the same count and under the same terms, as for `Cc1cc(C(F)(F)F)cc(N2C(=O)CC[C@H]2C(=O)N(CC#Cc2cncn2C)c2ccc(F)c(C)c2)n1` [Example 9, (S)-N-(4-fluoro-3-methylphenyl)-N-(3-(1-methyl-1H-imidazol-5-yl)prop-2-yn-1-yl)-1-(6-methyl-4-(trifluoromethyl)pyridin-2-yl)-5-oxopyrrolidine-2-carboxamide], the figure is less than 1000 nM; as for `Cc1cc(C(F)(F)F)cc(N2C(=O)CC[C@H]2C(=O)N(CC#Cc2cnc(N3CCOCC3)cn2)c2ccc(F)c(C)c2)n1` [Example 10, (S)-N-(4-fluoro-3-methylphenyl)-1-(6-methyl-4-(trifluoromethyl)pyridin-2-yl)-N-(3-(5-morpholinopyrazin-2-yl)prop-2-yn-1-yl)-5-oxopyrrolidine-2-carboxamide], less than 1000 nM.
On the same count and under the same terms, the result for `CCN1CCN(c2cnc(C#CCN(C(=O)[C@@H]3CCC(=O)N3c3cc(C(F)(F)F)cc(C)n3)c3ccc(F)c(C)c3)cn2)CC1` [Example 11, (S)-N-(3-(5-(4-ethylpiperazin-1-yl)pyrazin-2-yl)prop-2-yn-1-yl)-N-(4-fluoro-3-methylphenyl)-1-(6-methyl-4-(trifluoromethyl)pyridin-2-yl)-5-oxopyrrolidine-2-carboxamide] reads less than 1000 nM.

A further test concerns the target T1, Polθ polymerase domain (amino acids 1792-2590) (Homo sapiens, UniProt O75417).
T1 construct: 10×Histidine-SUMO (N, cleaved yes); made in house; host or cells: E. coli
T1 sequence (O75417 1792-2590): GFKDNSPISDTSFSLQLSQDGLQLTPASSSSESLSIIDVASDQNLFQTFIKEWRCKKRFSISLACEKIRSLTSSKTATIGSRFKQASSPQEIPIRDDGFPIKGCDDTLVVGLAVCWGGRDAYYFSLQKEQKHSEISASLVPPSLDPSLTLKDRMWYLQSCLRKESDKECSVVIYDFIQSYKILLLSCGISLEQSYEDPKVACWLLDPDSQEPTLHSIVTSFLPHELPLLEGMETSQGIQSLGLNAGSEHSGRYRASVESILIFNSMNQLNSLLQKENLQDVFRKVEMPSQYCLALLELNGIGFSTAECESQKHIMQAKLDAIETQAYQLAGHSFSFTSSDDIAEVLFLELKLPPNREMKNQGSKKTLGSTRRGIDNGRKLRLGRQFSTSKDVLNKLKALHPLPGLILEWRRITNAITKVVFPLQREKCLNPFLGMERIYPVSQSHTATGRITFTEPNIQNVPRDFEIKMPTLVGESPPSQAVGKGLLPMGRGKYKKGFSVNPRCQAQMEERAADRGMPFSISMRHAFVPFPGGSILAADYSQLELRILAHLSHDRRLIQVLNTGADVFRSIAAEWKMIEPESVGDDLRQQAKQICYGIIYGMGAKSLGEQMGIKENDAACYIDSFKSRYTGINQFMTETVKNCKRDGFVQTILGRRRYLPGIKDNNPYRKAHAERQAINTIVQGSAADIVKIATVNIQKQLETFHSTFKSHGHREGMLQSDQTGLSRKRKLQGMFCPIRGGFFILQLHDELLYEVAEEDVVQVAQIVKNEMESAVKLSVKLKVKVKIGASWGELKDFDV
As to the kind of experiment: Picogreen assay of Polθ polymerase activity. It counts as biochemical. As to conditions: 12-point concentration response, 90 minutes incubation at room temperature, 8 nM Polθ in 2×polymerase mixture, read-out: PolQ IC50. Summed up:
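E. coli-expressed polymerase domain with His-SUMO tag removed; 2× enzyme mix (8 nM) combined with 2× substrate mix (100 nM annealed primer/template DNA, 40 uM dNTPs). Buffer 25 mM Tris-HCl pH 7.5, 12.5 mM NaCl, 0.5 mM MgCl2, 1 mM DTT. Reaction 90 min at room temperature, then EDTA/Picogreen stain read at 485/520 nm; 12-point IC50.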
Take `C=CC(=O)Nc1cc(C#CCN(C(=O)[C@@H]2CCS(=O)(=O)N2c2cc(C(F)(F)F)cc(C)n2)c2ccc(F)c(C)c2)ccn1` [compound 139, (S)-N-(3-(2-acrylamidopyridin-4-yl)prop-2-yn-1-yl)-N-(4-fluoro-3-methylphenyl)-2-(6-methyl-4-(trifluoromethyl)pyridin-2-yl)isothiazolidine-3-carboxamide 1,1-dioxide]: the 50% inhibitory concentration (IC50) lay within 1 to 50 nM.
Turning to `C=CC(=O)Nc1ccc(C#CCN(C(=O)[C@@H]2CCS(=O)(=O)N2c2cc(C(F)(F)F)cc(C)n2)c2ccc(F)c(C)c2)nc1` [compound 140, (S)-N-(3-(5-acrylamidopyridin-2-yl)prop-2-yn-1-yl)-N-(4-fluoro-3-methylphenyl)-2-(6-methyl-4-(trifluoromethyl)pyridin-2-yl)isothiazolidine-3-carboxamide 1,1-dioxide], the IC50 was in the range of 1 to 50 nM.
On to `C=CC(=O)Nc1ccc(C#CCN(C(=O)[C@@H]2CCS(=O)(=O)N2c2cc(C(F)(F)F)cc(C)n2)c2ccc(F)c(C)c2)cn1` [compound 141, (S)-N-(3-(6-acrylamidopyridin-3-yl)prop-2-yn-1-yl)-N-(4-fluoro-3-methylphenyl)-2-(6-methyl-4-(trifluoromethyl)pyridin-2-yl)isothiazolidine-3-carboxamide 1,1-dioxide], for which the half-maximal inhibitory concentration (IC50) was 1 to 50 nM.
For the compound `C=CC(=O)Nc1cccnc1C#CCN(C(=O)[C@@H]1CCS(=O)(=O)N1c1cc(C(F)(F)F)cc(C)n1)c1ccc(F)c(C)c1` [compound 142, (S)-N-(3-(3-acrylamidopyridin-2-yl)prop-2-yn-1-yl)-N-(4-fluoro-3-methylphenyl)-2-(6-methyl-4-(trifluoromethyl)pyridin-2-yl)isothiazolidine-3-carboxamide 1,1-dioxide], the IC50 was 1 to 50 nM.
As to `C=CC(=O)Nc1ccncc1C#CCN(C(=O)[C@@H]1CCS(=O)(=O)N1c1cc(C(F)(F)F)cc(C)n1)c1ccc(F)c(C)c1` [compound 143, (S)-N-(3-(4-acrylamidopyridin-3-yl)prop-2-yn-1-yl)-N-(4-fluoro-3-methylphenyl)-2-(6-methyl-4-(trifluoromethyl)pyridin-2-yl)isothiazolidine-3-carboxamide 1,1-dioxide], the IC50 fell in the range of 51 to 100 nM.
For the compound `C=CC(=O)Nc1cnccc1C#CCN(C(=O)[C@@H]1CCS(=O)(=O)N1c1cc(C(F)(F)F)cc(C)n1)c1ccc(F)c(C)c1` [compound 144, (S)-N-(3-(3-acrylamidopyridin-4-yl)prop-2-yn-1-yl)-N-(4-fluoro-3-methylphenyl)-2-(6-methyl-4-(trifluoromethyl)pyridin-2-yl)isothiazolidine-3-carboxamide 1,1-dioxide], the half-inhibitory concentration (IC50) is 51 to 100 nM.
The same measure, in the same setting: as for `Cc1cc(C(F)(F)F)cc(N2[C@H](C(=O)N(CC#Cc3ccc(C(N)=O)nc3)c3ccc(F)c(C)c3)CC3(CC3)S2(=O)=O)n1` [compound 145, (S)—N-(3-(6-carbamoylpyridin-3-yl)prop-2-yn-1-yl)-N-(4-fluoro-3-methylphenyl)-5-(6-methyl-4-(trifluoromethyl)pyridin-2-yl)-4-thia-5-azaspiro [2,4]heptane-6-carboxamide 4,4-dioxide], the figure is 1 to 50 nM.

The values above are taken from patent publication US20260297083A1, “SUBSTITUTED ACETYLENE COMPOUND DERIVATIVES AND THEIR PHARMACEUTICAL USE” (AVELOS THERAPEUTICS INC., priority 2023, published 2026).
